Literature values, collected in patent US6369001B1, “Microemulsion coformulation of a graminicide and a water-soluble herbicide” (Monsanto Technology, LLC, priority 1999, dated 2002).
Entries after “also recorded” stand apart in the source; their conditions may differ.

Conditions: aqueous medium

COC(=O)C(C)Oc1ccc(Oc2ccc(Cl)cc2Cl)cc1 (stereo not drawn) [diclofop-methyl]
pH dependence of chemical stability / hydrolysis in water: undergoes hydrolysis more readily in an alkaline medium

CCO/N=C(\CC)C1=C(O)CC(c2c(C)cc(C)cc2C)CC1=O (stereo not drawn) [tralkoxydim]
pH dependence of chemical stability / hydrolysis in water: especially unstable in an acid medium; also recorded: much more stable at pH 9 than at pH 5

CCOC(=O)[C@@H](C)Oc1ccc(Oc2cnc3cc(Cl)ccc3n2)cc1 [quizalofop-P-ethyl]
pH dependence of chemical stability / hydrolysis in water: hydrolysis occurring most rapidly when pH is in the alkaline range; also recorded: greater chemical stability in acid to neutral than in alkaline media
